Measured values from patent US20100260675A1, “Oxytocin Receptor Antagonists and Their Use for the Treatment of Pulmonary Related Diseases” (priority 2004, published 2010).
Blank lines part the entries; values can stand above or below the compound they belong to.

Key:
[1] = target: T1, Oxytocin Receptor on human airway smooth muscle cells (HASMC) (Homo sapiens, UniProt P30559); test: Calcium influx in human airway smooth muscle cells after addition of oxytocin; assay type: cell-based; settings: FIG. 4
T1 construct: the Oxytocin Receptor expressed on the surface of human airway smooth muscle cells is functional; endogenous in cells; host or cells: primary human airway smooth muscle cells (HASMC)
T1 sequence (P30559 1-389): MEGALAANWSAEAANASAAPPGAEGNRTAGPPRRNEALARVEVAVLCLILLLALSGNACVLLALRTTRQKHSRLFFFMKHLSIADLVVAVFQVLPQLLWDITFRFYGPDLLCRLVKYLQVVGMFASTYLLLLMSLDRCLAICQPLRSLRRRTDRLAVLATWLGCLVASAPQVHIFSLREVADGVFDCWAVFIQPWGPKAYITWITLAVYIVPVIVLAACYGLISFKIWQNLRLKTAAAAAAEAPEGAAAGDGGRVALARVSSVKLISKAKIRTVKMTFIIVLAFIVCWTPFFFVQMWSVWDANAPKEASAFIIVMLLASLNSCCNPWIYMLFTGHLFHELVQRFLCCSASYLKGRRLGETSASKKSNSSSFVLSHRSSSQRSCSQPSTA
Description: In order to determine whether the Oxytocin Receptor expressed on the surface of human airway smooth muscle cells is functional, the amount of influx of calcium was measured. HASMC were serum starved and then either unstimulated or stimulated with IL-13 (50 ng/ml) for 24 hours. The amount of calcium that mobilized Into the cells was measured after addition of oxytocin (100 nM or 500 nM).

[2] = system: Oxytocin Receptor (OXTR) mRNA in primary human airway smooth muscle cells; test: Real Time PCR analysis of oxytocin receptor mRNA in cytokine-stimulated primary human airway smooth muscle cells; assay type: cell-based; settings: for level of OXTR mRNA normalized to 18S mRNA and relative to untreated control (0 hour timepoint): primary HASMC from normal donors, 50 ng/ml; for induced expression of the Oxytocin Receptor normalized to 18S and relative to untreated control (0 hour timepoint): primary HASMC from two normal donors, 10 ng/ml
Description: In order to confirm the microarray finding by an independent means, Real Time PCR technology was employed. Primary human airway smooth muscle cells from “normal” donors were cultured with IL-13 or a naturally occurring mutant form IL-13R130Q (associated with high serum IgE levels) for 0, 6 hours or 18 hours at 50 ng/ml after allowing the cell to rest for 24 hours. Total RNA was isolated, reverse transcribed and used in Real Time PCR analysis for oxytocin receptor using the Applied Biosystems Gene Expression Assay (ID number Hs00168573_m1) on the ABI PRISM® 7900HT Sequence Detection System. At 6 hours, the level of OXTR mRNA normalized to 18S mRNA and relative to untreated control (i.e., 0 hour time point) was 1.95 (Std Dev. 0.41) when cells were stimulated with WT IL-13 and 1.79 (Std Dev. 0.22) when stimulated with R130Q. At 18 hours, the level of OXTR mRNA normalized to 18S mRNA and relative to untreated control (i.e., 0 hour timepoint) was 2.02 (Std Dev. 0.42) when the cells were stimulated with WT IL-13 and 3.58 (Std Dev. 0.74) when stimulated with R130Q.
Primary human airway smooth muscle cells from two “normal” donors were cultured with tumor necrosis factor alpha (TNFα) for 0, 6 hours or 18 hours at 10 ng/ml after resting the cells for 24 hours. Total RNA was isolated, reverse transcribed and used in Real Time PCR analysis for the Oxytocin Receptor. TNFα induced the expression of the Oxytocin Receptor by 4.88 (Std Dev. 1.13) at 6 hours and 7.06 (Std. Dev. 1.42) at the 18-hour time point normalized to 18S and relative to untreated control (i.e., 0 hour timepoint).

[3] = system: Oxytocin Receptor mRNA in trachea; test: Oxytocin Receptor RNA expression in trachea, in vivo model of acute asthma (Real Time PCR); settings: mice immunized i.p. day 1 and 8, challenged intranasally days 22-24, trachea day 25
Description: The RNA expression of Oxytocin Receptor in an in vivo model of acute asthma was tested. The mice were immunized with ovalbumin intraperitoneal on day 1 and day 8 and then challenged intranasally on days 22, 23 and 24. On day 25, the mice were euthanized. The trachea were extracted for RNA isolation and used in Real Time PCR analysis for Oxytocin Receptor.

Ca influx in human airway smooth muscle cells ([1]; serum-starved HASMC, oxytocin 100 nM or 500 nM): induces Ca influx
Compound: CC[C@H](C)[C@@H]1NC(=O)[C@H](Cc2ccc(O)cc2)NC(=O)[C@@H](N)CSSC[C@@H](C(=O)N2CCC[C@H]2C(=O)N[C@@H](CC(C)C)C(=O)NCC(N)=O)NC(=O)[C@H](CC(N)=O)NC(=O)[C@H](CCC(N)=O)NC1=O [oxytocin]

effect on oxytocin-induced calcium influx in HASMC ([1]; IL-13 50 ng/ml for 24 hours, at low concentrations of oxytocin): further enhances calcium influx
Compound: IL-13: wild-type interleukin 13, Th2 derived cytokine used to stimulate airway smooth muscle cells
level of OXTR mRNA normalized to 18S mRNA and relative to untreated control (0 hour timepoint) ([2]; 6 hours): 1.95 (Std Dev. 0.41)
level of OXTR mRNA normalized to 18S mRNA and relative to untreated control (0 hour timepoint) ([2]; 18 hours): 2.02 (Std Dev. 0.42)

Compound: TNFα
induced expression of the Oxytocin Receptor normalized to 18S and relative to untreated control (0 hour timepoint) ([2]; 18-hour time point): 7.06 (Std. Dev. 1.42)
induced expression of the Oxytocin Receptor normalized to 18S and relative to untreated control (0 hour timepoint) ([2]; 6 hours): 4.88 (Std Dev. 1.13)

Compound: ovalbumin: allergen used to immunize and challenge mice in the acute asthma model
Oxytocin Receptor mRNA in trachea compared to PBS control [3]: 1.5 fold
